According to patent US20260263497A1, “METHOD OF TREATING SCHIZOPHRENIA AND COMPOSITION FOR USE THEREIN” (Academia Sinica, priority 2022, published 2026):

Key:
Type in all cases: in vivo, mice (C57BL/6)
[1] = test system: METH-induced hyperlocomotion in METH-naïve wild-type mice; assay: METH-induced hyperlocomotor activity (METH-induced behavioral sensitization, open field); conditions: for effect on METH-induced hyperlocomotion activity, total travelled distance: i.p. co-injection 0.3, 1, 3 mg/kg with METH 2 mg/kg, 60 minutes, FIG. 2
Procedure: (§1) Animals: Male mice (C57BL/6; 2-3 months) were purchased from and maintained in the animal facility of National Taiwan University (Taipei, Taiwan) under standard condition with a 12-hr light/12-hr dark cycle. All animal experimental procedures were performed in accordance with the guidelines established by the Institutional Animal Care and Use Committee (IACUC) of the National Taiwan University and Institute of Biomedical Sciences (IBMS) at Academia Sinica (Taipei, Taiwan).
(§2) The locomotor activity: The locomotor activity was monitored and recorded using SMART 3.0 video tracking software (Panlab Harvard Apparatus, Barcelona, Spain) for 1 hour following the manufacture's protocol.
Methamphetamine (METH) is a dopamine enhancer that elevates synaptic dopamine in the brain and is frequently used to induce schizophrenia-like behaviors in mice.^6 Thus, METH-induced psychosis mice was used to evaluate the in vivo efficacy of JMF3464.
Male METH-naïve wild-type (WT) mice (3-6 months old) received intraperitoneal co-injections of JMF3464 (0.3, 1, or 3 mg/kg) and METH (2 mg/kg) immediately after establishing a 20-minute baseline for locomotor activity. The locomotor activity was recorded for 60 minutes after injection. A saline+vehicle group and a METH+vehicle group are used as control groups. In addition, under the same experimental conditions as JMF3464, the compound CGS21680 (A2A receptor agonist) with potential for treating schizophrenia was used as a comparison. The resulted data was expressed and analyzed as one-way ANOVA of total travelled distance (see FIG. 2) and two-way ANOVA of distance by 5-minute time bin (see FIGS. 3A and 3B) and.
as §1, with “IACUC” for “Institutional Animal Care and Use Committee (IACUC)”, “IBMS” for “Institute of Biomedical Sciences (IBMS)”
Male METH-naïve wild-type (WT) mice (3-6 months old) received intraperitoneal co-injections of JMF1907 (1 mg/kg) and METH (2 mg/kg) immediately after establishing a 20-minute baseline for locomotor activity. The locomotor activity was recorded for 60 minutes after injection. In this study, a saline+vehicle (5% DMSO) group and a METH+vehicle (5% DMSO) group are used as control groups. In addition, the compound JMF3464 described above, and the compound S-(4-Nitrobenzyl)-6-thioinosine (NBTI), known as an inhibitor of equilibrative nucleoside transporter 1 (ENTi) transporter, are used as comparative examples with the same experimental conditions as JMF1907. The resulted data was expressed and analyzed as one-way ANOVA of total travelled distance (see FIG. 5) and two-way ANOVA of distance by 5-minute time bin (see FIG. 6).

[2] = test system: locomotor activity of drug-naïve WT mice; assay: Effect of JMF3464 alone on locomotor activity; conditions: single i.p. injection 0.3, 0.5, 1, 3 mg/kg
Procedure: as §1, §2
Male drug-naïve WT mice (3-6 months old) received a single dose JMF3464 injection (0.3, 0.5, 1, and 3 mg/kg, respectively) via intraperitoneal injection and the locomotor activity was recorded immediately after injection. A vehicle group is used as control group. The data were expressed and analyzed as one-way ANOVA of total travelled distance for 60 minutes (see FIG. 1A) and two-way ANOVA of distance by 5-minute time bin (see FIG. 1B).

[3] = test system: METH-induced CPP in mice; assay: METH-induced conditioned place preference (CPP)
Procedure: as §1
The METH-induced conditioned place preference (CPP) task is further performed to examine the therapeutic effect of JMF3464 on METH-induced addiction.
The METH-induced CPP procedure is shown as follows. The conditioned place preference (CPP) paradigm is a standard preclinical behavioral model used to study the rewarding and aversive effects of drugs. The paradigm usually uses a two-compartment apparatus with each compartment displaying distinct contextual characteristics (e.g., wall colors/patterns and floor texture). The CPP model consisted of three phases: pre-conditioning (baseline), conditioning, and post-conditioning (i.e., CPP test). […] Lastly, one day after the conditioning sessions, mice underwent a CPP test where they were again given free access to all compartments for 15 minutes and the time spent in the METH-paired side was measured, which provided a measure of CPP expression.

For `CCNC(=O)[C@H]1O[C@@H](n2cnc3c(N)nc(NCCc4ccc(CCC(=O)O)cc4)nc32)[C@H](O)[C@@H]1O` [CGS21680, reference compound], the “effect on METH-induced hyperlocomotion activity, total travelled distance” value [1] was “dose-dependently suppressed”.

In the case of `OC[C@H]1O[C@@H](n2cnc3c(NCCc4c[nH]c5ccccc45)ncnc32)C(O)C1O` (some centres unmarked) [JMF1907], the “improvement of METH-induced hyperactive behavior, five-minute intervals” value ([1]; 1 mg/kg i.p. co-injection with METH 2 mg/kg, open field 60 minutes, FIG. 6) is reported as “comparable to the control group” and the “effect on METH-induced hyperactive behavior, overall locomotion” value ([1]; 1 mg/kg i.p. co-injection with METH 2 mg/kg, open field 60 minutes, vehicle 5% DMSO, compared to JMF3464 and NBTI, FIG. 5) is reported as “significantly improves”.

With `OC[C@H]1O[C@@H](n2cnc3c(NCc4ccc(Br)s4)ncnc32)[C@H](O)[C@@H]1O` [JMF3464, N6-[(5-bromothien-2-yl)methyl]adenosine] the “effect on locomotor activity” value ([2]; 60 minutes) was “dose-dependent effect”, the “reduction of total locomotor activity” value ([2]; total travelled distance 60 minutes, vs vehicle) was ~ 20% and the “inhibitory effect on METH-induced CPP” value ([3]; 1 mg/kg i.p. 10 minutes before each METH conditioning session, FIG. 4A) was “neither 1 mg/kg nor 3 mg/kg of JMF3464 exerted inhibitory effect”. The “inhibitory effect on METH-induced CPP” value ([3]; 3 mg/kg i.p. 10 minutes before each METH conditioning session, FIG. 4B) was “neither 1 mg/kg nor 3 mg/kg of JMF3464 exerted inhibitory effect”, the “effect on METH-induced locomotion activity, 5-minute time bins” value ([1]; 3 mg/kg i.p. co-injection with METH 2 mg/kg, vs METH+vehicle, FIGS. 3A, 3B) was “significantly lowered” and the “effect on METH-induced hyperlocomotion activity, total travelled distance” value [1] was “dose-dependently suppressed”. For the same compound, the “effect on METH-induced behavioral sensitization after repeated use” value ([1]; repeated use, no further conditions given) was “no effect”.

For `CN[C@@H](C)Cc1ccccc1` [METH, Methamphetamine], the “hyperlocomotion induced by METH” value ([1]; METH 2 mg/kg i.p. + vehicle vs saline+vehicle, total travelled distance 60 minutes) was “approximately 200%”.
